# Entries after “also recorded” stand apart in the source; their conditions may differ.
# Experiments:
# [1] = DMBA-initiated and TPA-promoted; cited from earlier work
# [2] = topical, complete carcinogenesis model; cited from earlier work
# [3] = test system: mammalian glucose-6-phosphate dehydrogenase (G6PDH); conditions: cited from earlier work
# [4] = test system: human lymphocytes (Epstein-Barr virus-induced transformation); conditions: cited from earlier work
# [5] = target: purified bovine adrenal G6PDH (Bos taurus, UniProt F1MMK2); experiment: G6PDH inhibition test; type: biochemical; conditions: individual determinations
# Text: The compound listed below are screened as inhibitors of purified bovine adrenal G6PDH activity as one predictor of cancer preventive action. The assay for testing the inhibition of purified bovine adrenal G6PDH is according to the procedure by Oertell, G. W. and Rebelein, I. in Biochem. Biophys. Acta, 184, 459-460 (1969).
# [6] = test system: mouse epidermis (TPA stimulated 3H-thymidine incorporation); experiment: TPA stimulation of 3H-thymidine incorporation in mouse epidermis, oral steroid; type: in vivo, mouse (male ICR)
# Experimental: Tumor promoters, such as TPA, stimulate hyperplasia and DNA synthesis when applied to the skin, and it is believed that this stimulation is an important step in the enhancement of tumorigenesis.
# Male ICR mice were orally intubated with steroid suspended in sesame oil (0.5 ml/mouse) at the indicated dose. Mice not receiving steroid were given sesame oil alone. One hour later mice received topical application of TPA and 20 hours later the rate of ^3 H-thymidine incorporation into the epidermis was determined as described in Pashko, L. L., Schwartz, A. G., Abou-Gharbia, M., and Swern, D. (1981), Inhibition of DNA synthesis in mouse epidermis and breast epithelium by dehydroepiandrosterone and related steroids, Carcinogenesis, 2,-717-721.
# Experimental conditions are the same as in Table 3.
# mouse skin DNA = experiment: (3H) DMBA binding to skin DNA; type: in vivo, mouse (A/J); conditions: oral, mice, doses well below 400 mg/kg
# [7] = Liver weight after three weeks of diet treatment; type: in vivo, mouse (female Balb/c); conditions: 0.25% of diet; for LIVER WEIGHT: control 0.057 ± 0.006, DHEA p < 0.05, clofibrate p < 0.002 vs control; for liver weight, in words: mice
# Experimental: (§1) Female Balb/c mice were housed in polycarbonate cages (6/mice/cage) in animal quarters maintained at 24°±1° C. with 12 hours of light and 12 hours of dark each day. The mice were placed on a diet containing either DHEA, 8354, A, B clofibrate or with no addition. Three weeks later the mice were killed, the livers were perfused with cold saline, weighed, and 5% liver homogenates were prepared for the determination of catalase activity by the spectrophotometric method of Luck (H. Luck, in Method in Enzyme Analysis, H. U. Bergmeyer, Ed. (Verlag Chemie, Weinheim/Bergstrasse, Germany, 1965)). Total protein was measured by the method of Lowry, et al. (O. H. Lowry, N. J. Rosebrough, A. L. Farr, R. J. Randall, J. Biol. Chem., 193, 265 (1951)).
# liver catalase = experiment: Liver catalase activity after three weeks of diet treatment; type: in vivo, mouse (female Balb/c); conditions: 0.25% of diet; for CATALASE ACTIVITY: control 31.1 ± 6.7, DHEA p < 0.05, clofibrate p < 0.001 vs control; for catalase activity, in words: mice
# Experimental: as §1
# [8] = Estrogenic / androgenic side-effects, general statements; conditions: in vivo
# [9] = Estrogenic and anti-estrogenic activity, uterine weight; type: in vivo, rat (female CD); conditions: Table 2a; 60 mg/kg s.c. for 3 days; control 1.95 ± 0.22; DHEA significantly greater than control, p < 0.001
# Experimental: Estrogenic and Anti-Estrogenic Activity
# Female CD rats, 26-27 days old, were injected subcutaneously for 3 days with one of the compounds of the present invention at 60 mg/kg in propylene glycol. Controls received propylene glycol alone. On the 4th day, the rats were killed and the uteri were dissected out and weighed.
# [10] = Anti-obesity action, body weight, female Balb/c mice; type: in vivo, mouse (female Balb/c); conditions: 0.25% in diet
# Experimental: Female Balb/c (8 weeks old) mice were obtained from
# the Jackson Laboratory and were housed in polycarbonate cages
# (6 mice/cage) in animal quarters maintained at 24 ± 1° C. with
# 12 hours of light and 12 hours of darkness each day. One
# week after arrival, the mice were placed on a diet containing
# either DHEA, 8354, or without steroid. Animals were weighed
# [11] = Anti-weight effect in mice, general statements; type: in vivo, mouse
# Text: (Table 9 vs Table 5 and Table 6). […] Thus the cancer preventive the cancer preventive effect of DHEA may result indirectly from its anti-weight action rather than from a direct effect of DHEA or target cells.
# [12] = after carcinogen; cited from earlier work
# [13] = in vivo; cited from earlier work
# [14] = 10^-5 M, read-out: Percent Inhibition of G6PDH
# [15] = 10^-6 M, read-out: Percent Inhibition of G6PDH
# Sequence of purified bovine adrenal G6PDH (F1MMK2 31-70): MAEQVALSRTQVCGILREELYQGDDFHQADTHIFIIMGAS
# Sequence of purified bovine adrenal G6PDH (F1MMK2 101-575): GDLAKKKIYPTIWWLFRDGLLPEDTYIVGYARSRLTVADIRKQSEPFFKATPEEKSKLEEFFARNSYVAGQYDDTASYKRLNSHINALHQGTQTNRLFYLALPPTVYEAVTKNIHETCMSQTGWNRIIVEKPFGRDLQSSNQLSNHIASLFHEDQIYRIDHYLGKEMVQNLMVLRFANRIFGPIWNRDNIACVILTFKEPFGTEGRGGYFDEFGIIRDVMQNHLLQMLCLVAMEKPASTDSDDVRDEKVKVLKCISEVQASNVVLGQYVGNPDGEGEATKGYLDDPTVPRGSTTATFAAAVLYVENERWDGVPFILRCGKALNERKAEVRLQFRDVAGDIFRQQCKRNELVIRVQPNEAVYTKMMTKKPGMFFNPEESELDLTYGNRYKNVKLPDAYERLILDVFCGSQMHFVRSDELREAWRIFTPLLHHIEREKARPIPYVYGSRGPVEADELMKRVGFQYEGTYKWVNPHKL
smiles,measurement,setting,value
C[C@H]1CC[C@@]2(C)C(=CC[C@@H]3[C@@H]2CC[C@]2(C)C(=O)CC[C@@H]32)C1 [3β-methylandrost-5-en-17-one],skin papilloma formation,[1],inhibit
same,DMBA produced papillomas and carcinomas,[2],inhibits DMBA produced papillomas and carcinomas
C[C@]12CC[C@H](O)C[C@@H]1CC[C@@H]1[C@@H]2CC[C@]2(C)C(=O)C(Br)C[C@@H]12 (stereo partly drawn) [16-bromo-epiandrosterone],inhibition of mammalian G6PDH,[3],more potent inhibitor of mammalian G6PDH than DHEA
same,inhibition of Epstein-Barr virus-induced transformation,[4],inhibitors of Epstein-Barr virus-induced transformation of human lymphocytes
C[C@]12CCCC[C@@H]1CC[C@@H]1[C@@H]2CC[C@]2(C)C(=O)[C@H](F)C[C@@H]12 [B],inhibition at 10 µM,[5]; [14],96%
same,Percent Inhibition of G6PDH,[5]; 10^-6 M,84%
same,inhibition at 1 µM,[5]; [15],82%
same,inhibition at 0.1 µM,"[5]; 10^-7 M, read-out: Percent Inhibition of G6PDH",36%
same,"SPECIFIC ACTIVITY, TPA stimulated 3H-thymidine incorporation","[6]; Table 3, oral 25 mg/kg, no steroid 70.2, TPA alone 154",66.1 ± 9.8 cpm/ug DNA
same,"SPECIFIC ACTIVITY, TPA stimulated 3H-thymidine incorporation","[6]; Table 3, oral 50 mg/kg, no steroid 70.2, TPA alone 154",25.6 ± 4.0 cpm/ug DNA
same,"SPECIFIC ACTIVITY, TPA stimulated 3H-thymidine incorporation","[6]; Table 3, oral 100 mg/kg, no steroid 70.2, TPA alone 154",7.2 ± 3.8 cpm/ug DNA
same,effect on 3H-DMBA binding to skin DNA,mouse skin DNA,inhibit ^3 H-DMBA binding to skin DNA
same,LIVER WEIGHT,[7],0.061 ± 0.002 gm/gm body weight
same,"liver weight, in words",[7],no effect on liver weight; also recorded: neither increased liver weight
same,CATALASE ACTIVITY,liver catalase,32.2 ± 6.0 Units per mg protein
same,"catalase activity, in words",liver catalase,no effect on liver weight or catalase activity
same,estrogenic and androgenic side-effects,[8],lacking the estrogenic and androgenic side-effects of DHEA
C[C@]12CCCCC1=CC[C@@H]1[C@@H]2CC[C@]2(C)C(=O)[C@H](F)C[C@@H]12 [Compound 8354],Percent Inhibition of G6PDH,[5]; 10^-5 M,83%
same,inhibition at 10 µM,[5]; [14],79%
same,Percent Inhibition of G6PDH,[5]; 10^-6 M,77%
same,inhibition at 1 µM,[5]; [15],75%
same,Mean Uterine Weigh ± S.D.,[9],1.93 ± 0.29
same,"SPECIFIC ACTIVITY, TPA stimulated 3H-thymidine incorporation","[6]; Table 9, oral 25 mg/kg, no steroid 55.1, TPA alone 118",47.9 ± 2.0 cpm/ug DNA
same,"SPECIFIC ACTIVITY, TPA stimulated 3H-thymidine incorporation","[6]; Table 9, oral 50 mg/kg, no steroid 55.1, TPA alone 118",36.2 ± 1.4 cpm/ug DNA
same,"SPECIFIC ACTIVITY, TPA stimulated 3H-thymidine incorporation","[6]; Table 9, oral 100 mg/kg, no steroid 55.1, TPA alone 118",15.0 ± 6.3 cpm/ug DNA
same,effect on 3H-DMBA binding to skin DNA,mouse skin DNA,inhibit ^3 H-DMBA binding to skin DNA
same,mean weekly weight ± S.D.,"[10]; week 0, control 17.5 ± 1.4",17.4 ± 0.6 grams
same,mean weekly weight ± S.D.,"[10]; week 1, control 19.9 ± 1.2",16.9 ± 1.0 grams
same,mean weekly weight ± S.D.,"[10]; week 2, control 20.6 ± 1.0",17.8 ± 0.8 grams
same,mean weekly weight ± S.D.,"[10]; week 3, control 21.8 ± 0.8",18.0 ± 1.3 grams
same,LIVER WEIGHT,[7],0.066 ± 0.005 gm/gm body weight
same,"liver weight, in words",[7],no effect on liver weight; also recorded: neither increased liver weight
same,CATALASE ACTIVITY,liver catalase,29.2 ± 2.6 Units per mg protein
same,"catalase activity, in words",liver catalase,no effect on liver weight or catalase activity
same,estrogenic and androgenic side-effects,[8],lacking the estrogenic and androgenic side-effects of DHEA
same,activity as an anti-obesity agent relative to DHEA,"[11]; mouse, in vivo",several times more active than DHEA as an anti-obesity agent
same,anti-weight effect at the cancer preventive dosages,"[11]; oral, mice",possible exception
CCCCC(CC)COC(=O)c1ccccc1C(=O)OCC(CC)CCCC (stereo not drawn) [di(2-ethylhexyl)-phthalate],"liver basophilic lesions, enzyme-negative",[12],also produced
same,effect on liver (type of hepatomegaly),[13],Typical peroxisome proliferators
